pEC50, pIC50: −log10 of the molar value. Where two headings read alike, the source gives them in different places.
Columns and labels:
[1] = molecular target: CSF-1R (Homo sapiens (Human), UniProt P07333); assay: Biochemical HTRF kinase assay, CSF-1R; conditions: recombinant human CSF-1R;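 note: enzyme incubated with inhibitor plus a substrate and ATP mix for one hour at room temperature before HTRF detection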
[2] = molecular target: FLT3 (Homo sapiens (Human), UniProt P36888); assay: Biochemical HTRF kinase assay, FLT3; conditions: for pIC50: recombinant human protein; for FLT3 Fold: selectivity: IC50 of FLT3 as multiple of IC50 of CSF-1R
Chain of FLT3 (P36888 27-993): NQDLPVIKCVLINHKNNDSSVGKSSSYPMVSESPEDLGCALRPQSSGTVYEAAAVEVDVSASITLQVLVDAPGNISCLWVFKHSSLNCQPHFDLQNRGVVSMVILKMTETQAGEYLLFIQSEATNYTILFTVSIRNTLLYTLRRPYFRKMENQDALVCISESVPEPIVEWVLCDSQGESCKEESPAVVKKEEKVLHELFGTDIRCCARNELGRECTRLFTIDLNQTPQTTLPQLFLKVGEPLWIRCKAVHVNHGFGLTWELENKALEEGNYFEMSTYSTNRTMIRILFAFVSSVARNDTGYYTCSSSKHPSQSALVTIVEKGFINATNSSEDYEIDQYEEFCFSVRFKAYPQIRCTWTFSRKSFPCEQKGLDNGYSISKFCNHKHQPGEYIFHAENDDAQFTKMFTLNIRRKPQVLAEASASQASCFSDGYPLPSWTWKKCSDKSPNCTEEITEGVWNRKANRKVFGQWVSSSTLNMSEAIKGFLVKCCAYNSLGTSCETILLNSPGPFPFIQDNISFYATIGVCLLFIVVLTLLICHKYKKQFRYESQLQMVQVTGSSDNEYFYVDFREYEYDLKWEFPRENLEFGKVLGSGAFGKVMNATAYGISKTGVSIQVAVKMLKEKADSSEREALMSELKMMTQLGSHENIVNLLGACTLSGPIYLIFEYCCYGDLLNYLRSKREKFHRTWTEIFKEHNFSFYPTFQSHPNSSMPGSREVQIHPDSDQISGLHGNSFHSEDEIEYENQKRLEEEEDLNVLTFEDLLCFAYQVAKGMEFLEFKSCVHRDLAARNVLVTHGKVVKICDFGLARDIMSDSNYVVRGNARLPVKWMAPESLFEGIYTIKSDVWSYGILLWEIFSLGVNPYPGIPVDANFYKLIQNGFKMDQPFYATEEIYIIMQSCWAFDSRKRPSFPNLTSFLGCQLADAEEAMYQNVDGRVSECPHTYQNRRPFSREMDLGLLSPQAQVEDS

[3] = system: Ba/F3_CSF-1R (stably expressing human CSF-1R kinase); assay: Cell proliferation assay, Ba/F3_CSF-1R; type: cell-based; conditions: BaF3, 72 h
[4] = system: EOC2 cell; assay: Cell proliferation assay, EOC2; type: cell-based, mouse; conditions: Mus musculus, 72 h
[5] = In vivo PK study (plasma and brain exposure); parameters: species or system CD1 mouse; conditions: for Kp uu / half-life / AUC(0-t) / AUC(0-inf) / clearance / Vd / bioavailability / Cmax / Tmax: male; for Kp uu: CD1, brain, BBB penetration; for half-life: CD1, mouse; for clearance: read-out: IV-2mpk CL (converted); for Vd: read-out: IV-2mpk VSS; for bioavailability: p.o. 45 mg/kg vs i.v. 2 mg/kg; for Cmax: read-out: PO-45mpk Cmax; for Tmax: read-out: PO-45mpk Tmax
Experimental: The PK profiles were determined in CD1 mouse, and all the procedures and protocols were in accordance with the National Institutes of Health Guide for the Care and Use of Laboratory Animals. The CD1 mouse were purchased from JH Laboratory Animal Co. LTD. The CD1 mouse (23-30 g, 6-8 weeks, male) were randomized and divided into five groups consisting of 21 mouse per group. The test compounds that have been formulated were subjected to PK studies. The test compounds were administrated via p.o. at 45 mg/kg and i.v. at 2 mg/kg. […] The blood samples were placed on wet ice, and serum was collected after centrifugation. Serum samples were frozen and stored at −70° C. The brain samples were dried on filtrate paper, and snap frozen on dry ice and further stored at −70° C. Then, the blood samples and brain samples were further analyzed by LC-MS/MS (Triple Quad 6500+).

[6] = Plasma protein binding study; type: in vitro ADME; conditions: mouse plasma, equilibrium dialysis 4 hours; read-out: PPB-mouse (Bound) (%) (converted)
Experimental: On the day of experiment, the plasma was thawed under running cold tap water and centrifuged at 3220×g for 5 min to remove any clots. The pH value was checked and recorded. Only plasma within range of pH 7.0 to pH 8.0 was used. Pretreat the dialysis membrane according to the manufacturer's instructions: the dialysis membrane strips were soaked in ultra pure water at room temperature for approximately 1 hr. After that, each membrane strip that contains 2 membranes was separated and soaked in ethanol:water (20:80 v:v) for approximately 20 min, after which it was ready for use or was stored in the solution at 2-8° C. for up to 1 month. Prior to the experiment, the membrane was rinsed and soaked for 20 min in ultra pure water for use. Working solutions (400 μM) of test compound and control compound were prepared. Aliquots of working solutions (3 μL) were spiked into blank matrix (597 μL) to achieve final concentrations and mixed thoroughly. Aliquots of 50 μL loading matrix containing test compound or control compound in triplicate was transferred to Sample Collection Plate, respectively. The samples were matched with opposite blank buffer to obtain a final volume of 100 μL with a volume ratio of matrix:Dialysis Buffer (1:1, v:v) in each well immediately. The stop solution was added to these T0 samples of test compound and control compound. The plate was sealed and shaked at 800 rpm for 10 min. Then these T0 samples were stored at 2-8° C. pending further process along with other post-dialysis samples. The dialysis instrument was assembled following manufacture's instructions. An aliquot of 100 μL of the loading matrix containing test compound or control compound was transferred to the donor side of each dialysis well in triplicate and 100 μL of the Dialysis Buffer was loaded to the receiver side of the well. Then the plate was rotated at approximately 100 rpm in a humidified incubator with 5% CO2 at 37±1° C. for 4 hours. At the end of the dialysis, aliquots of 50 μL samples from the buffer side and matrix side of the dialysis device were taken into new 96-well plates (Sample Collection Plates). An equal volume of opposite blank matrix (buffer or matrix) in each sample was added to reach a final volume of 100 μL with volume ratio of matrix:Dialysis Buffer at 1:1 (v:v) in each well. All samples were further processed by protein precipitation for LC/MS/MS analysis.

[7] = system: primary rat microglia; assay: Primary rat microglia survival; type: cell-based; conditions: 3 days of exposure, Iba1 staining
Source text: To assess the potency of CSF1R inhibitors disclosed herein we isolated and expanded primary brain glia from rat cortices in-vitro. This glial culture is about 20% microglia that is supported mostly by astrocytes that make up the rest of the population. The brain glia was exposed to CSF1R inhibitors for 3 days followed by paraformaldehyde fixation and immunofluorescence staining for the microglia marker, Iba1. The glial was imaged using a high-content-imager and the changes in microglia content were quantified. Using GraphPad Prism, a four-parameter logistic regression was applied to determine the potency of the CSF1R inhibitors.

[8] = system: human iPSC-derived microglia (hiPSC-MG); assay: hiPSC-MG survival (Presto-Blue viability); type: cell-based; conditions: 48 h treatment
[9] = serum, iv, 2 mg/kg, CD1 mouse, i.v. 2 mg/kg, read-out: IV-2mpk T1/2 (converted)
[10] = serum, po, 45 mg/kg, CD1 mouse, p.o. 45 mg/kg, read-out: PO-45mpk T1/2 (converted)
[11] = CD1, po, mouse, p.o. 45 mg/kg, brain, read-out: PO-45mpk AUClast-brain
[12] = CD1, po, mouse, p.o. 45 mg/kg, plasma, Tables 7 and 8, read-out: PO-45mpk AUClast-plasma
[13] = serum, iv, CD1 mouse, i.v. 2 mg/kg, read-out: IV-2mpk AUCInf
[14] = serum, iv, CD1 mouse, i.v. 2 mg/kg, read-out: IV-2mpk AUClast
[15] = serum, iv, CD1 mouse, i.v. 2 mg/kg
[16] = serum, po, CD1 mouse, p.o. 45 mg/kg, Tables 5 and 6, read-out: PO-45mpk AUClast
[17] = serum, po, CD1 mouse, p.o. 45 mg/kg, read-out: PO-45mpk AUCInf
[18] = serum, po, CD1 mouse, p.o. 45 mg/kg

Chain of CSF-1R (P07333 20-972): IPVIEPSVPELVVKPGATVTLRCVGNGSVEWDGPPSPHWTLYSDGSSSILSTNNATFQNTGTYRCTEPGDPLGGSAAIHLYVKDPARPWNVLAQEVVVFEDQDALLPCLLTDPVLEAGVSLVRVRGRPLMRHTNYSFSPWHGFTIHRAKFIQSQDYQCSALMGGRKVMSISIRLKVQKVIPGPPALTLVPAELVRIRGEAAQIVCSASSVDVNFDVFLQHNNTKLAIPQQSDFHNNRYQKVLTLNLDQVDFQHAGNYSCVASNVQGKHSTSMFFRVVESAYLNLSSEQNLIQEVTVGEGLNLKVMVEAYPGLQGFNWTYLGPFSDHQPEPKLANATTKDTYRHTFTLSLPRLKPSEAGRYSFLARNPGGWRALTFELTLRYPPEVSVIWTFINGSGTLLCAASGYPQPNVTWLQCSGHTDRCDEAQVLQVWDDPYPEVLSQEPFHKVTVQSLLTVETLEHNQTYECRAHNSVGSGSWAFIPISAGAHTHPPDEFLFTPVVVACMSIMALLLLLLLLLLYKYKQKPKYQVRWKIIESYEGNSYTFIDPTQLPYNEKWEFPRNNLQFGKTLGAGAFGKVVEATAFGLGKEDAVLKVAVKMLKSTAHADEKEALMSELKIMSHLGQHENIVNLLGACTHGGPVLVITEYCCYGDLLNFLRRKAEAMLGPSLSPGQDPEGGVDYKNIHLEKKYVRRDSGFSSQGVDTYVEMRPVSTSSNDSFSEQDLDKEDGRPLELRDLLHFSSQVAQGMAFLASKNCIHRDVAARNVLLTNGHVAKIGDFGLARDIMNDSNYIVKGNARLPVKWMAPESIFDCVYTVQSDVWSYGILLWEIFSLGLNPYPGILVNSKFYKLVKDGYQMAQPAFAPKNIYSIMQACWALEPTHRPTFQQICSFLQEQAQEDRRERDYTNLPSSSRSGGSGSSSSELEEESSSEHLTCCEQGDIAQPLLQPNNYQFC

SMILES	pIC50 ([1]; Table 2)	pIC50 ([1]; Table 3)	pIC50 [2]	FLT3 Fold [2]	IV-2mpk T1/2 ([5]; CD1 mouse, i.v. 2 mg/kg)	Kp uu ([5]; po, mouse, p.o. 45 mg/kg)	half-life [5, 9]	half-life [5, 10]	AUC(0-t) [5, 11]	AUC(0-t) [5, 12]	AUC(0-inf) [5, 13]	AUC(0-t) [5, 14]	clearance [5, 15]	Vd [5, 15]	bioavailability ([5]; serum, po, CD1 mouse)	AUC(0-t) [5, 16]	AUC(0-inf) [5, 17]	Cmax [5, 18]	Tmax [5, 18]	fraction unbound at 4 h, 2 µM [6]	other results
COc1ccc(COc2ncc(Cc3ccnc4cc(OC)cnc34)cc2OC)nc1 [Example 16, 3-methoxy-8-((5-methoxy-6-((5-methoxypyridin-2-yl)methoxy)pyridin-3-yl)methyl)-1,5-naphthyridine]	8.68	8.68	< 6.00	>100 fold	2.52 h	1.1	2.52 h	1.9 h	76.8 µg·h/mL	210 µg·h/mL	4.46 µg·h/mL	4.46 µg·h/mL	7.47 mL/min/kg	0.955 L/kg	215%	216 µg·h/mL	216 µg·h/mL	31.4 µg/mL	1 h	0.0063	pEC50 ([3]; Ba/F3_CSF-1R cells, 72 hours treatment, read-out: CSF-1R BaF3 EC50): 7.21; pEC50 ([4]; EOC2 cells, 72 hours treatment, read-out: ECO2 EC50): 7.41; IV-2mpk CL ([5]; CD1 mouse, i.v. 2 mg/kg): 7.47 mL/min/kg; primary rat microglia survival [7]: dose-dependent inhibition of primary rat microglia survival; hiPSC-MG survival IC50 compared with BLZ945 [8]: lower than that of BLZ945; pIC50 ([8]; Homo sapiens, Microglia): 7.50
COc1cnc2c(Cc3cnc(OCc4cc5n(n4)CCOC5)c(OC)c3)ccnc2c1 [Example 73, 2-(((3-methoxy-5-((7-methoxy-1,5-naphthyridin-4-yl)methyl)pyridin-2-yl)oxy)methyl)-6,7-dihydro-4H-pyrazolo[5,1-c][1,4]oxazine]	8.48	8.48	< 6.00	>100 fold	2.56 h	0.67	2.52 h	1.57 h	31.8 µg·h/mL	214 µg·h/mL	9.09 µg·h/mL	9.09 µg·h/mL	3.67 mL/min/kg	0.461 L/kg	98.8%	202 µg·h/mL	202 µg·h/mL	100 µg/mL	0.5 h	0.01	EC50 ([3]; read-out: CSF-1R BaF3 EC50 (nM)): 73.1 nM; EC50 ([4]; read-out: ECO2 EC50 (nM)): 47.5 nM; primary rat microglia survival [7]: dose-dependent inhibition of primary rat microglia survival; hiPSC-MG survival IC50 compared with BLZ945 [8]: lower than that of BLZ945; hiPSC-MG survival ([8]; FIG. 7B): dose-dependent inhibition of hiPSC-MG survival

Source: US20250360145A1, “CSF-1R INHIBITORS AND USES THEREOF” (Myrobalan Therapeutics, Inc., priority 2022, published 2025)
